Experimental data taken from paper PMC11025159 (Journal of Translational Medicine, 2024).
pIC50: −log10 of the molar value.

Assays:
IGF-1R = molecular target: T1, IGF-1R (Homo sapiens, UniProt P08069); experiment: Cell-free kinase assay IGF-1R; type: biochemical
T1 construct: purchased Promega Corporation V3581
Method: The cell-free kinase assays of small molecules were determined by following the manufacturer-recommended protocols. Different concentrations in triplicate were used to determine the IC50 value of the hit molecules (active molecules). For data analysis, GraphPad Prism V9.5 Software and a sigmoidal dose–response (variable slope) equation were used. Each value represents an average of three replicates per concentration.

HCT-116 = experiment: MTT cell viability assay HCT-116; type: cell-based, human; settings: Homo sapiens, HCT-116, 48 h
Method: (§1) Cell viability was evaluated using an MTT colorimetric assay. Cells were seeded (10^5 cells/mL) in 96-well plates and allowed to grow overnight at 37 ℃ with 5% CO2 in a cell-culture incubator. On the following day, the cells were treated with small molecules at different concentrations (0.2–10 micro-molar) or vehicle (DMSO). Cells were then further incubated for 48 h.

Mia PaCa-2 = experiment: MTT cell viability assay Mia PaCa-2; type: cell-based, human; settings: Homo sapiens, MIA PaCa-2, 48 h
Method: as §1

MCF-7 = experiment: MTT cell viability assay MCF-7; type: cell-based, human; settings: Homo sapiens, MCF7, 48 h
Method: as §1

Panc-2 = experiment: MTT cell viability assay Panc-2; type: cell-based; settings: 48 h
Method: as §1

HEK-293 = experiment: MTT cell viability assay HEK-293; type: cell-based, human
Method: as §1

human hair follicles = experiment: Human hair follicle organ culture ex-vivo; settings: 20 days culture, vs vehicle and untreated follicles
Method: Hair follicles were collected from three single donors of androgenetic alopecia undergoing hair transplant surgery at the Department of Dermatology, All India Institute of Medical Sciences, New Delhi, India. All experimental procedures were approved by the Institutional Ethics Committee […] of AIIMS, New Delhi (IEC approval No: 550/01.09.2023). Donors were above 18 years of age. Isolated hair follicles were cultured as per the previously described method of Philpott et al.. Immediately after isolation, follicles were placed in 24 well plates under sterile conditions into ice-cold Williams’ medium E (Sigma) with the different concentrations of MJ04 for 20 days. Half media was replaced with fresh media every 3rd day for 20 days. Basal length, i.e., length on the day of starting culture and post treatment was measured. Photographs were taken with a Nikon digital camera.

[1] = system: Murine macrophages (J774a.1); experiment: Cytokines from LPS primed macrophages (ELISA); type: cell-based; settings: dose-dependent
Method: The supernatant was collected and stored at −20 ℃ for further cytokines analysis. The level of cytokines (TNF-α, IL1-β, and IL-6) was analyzed by sandwich ELISA as per the manufacturer protocol (BD Biosciences). In brief, capture antibodies were coated in the 96-well ELISA plate (Nunc) in respective coating buffer at 4 ℃ overnight. The plate was washed 4 times with washing buffer and blocked with the recommended blocking buffer for 1 h at room temperature. After incubation, plates were washed 4 times, added with sample and standard, and further incubated for another 2 h. Plates were then washed 4 times, added with detection antibody in combination of HRP for 1 h, and finally again washed 5 times. HRP substrate (TMB) was added and allowed to develop observable colour, and the reaction was stopped by adding 2 N H2SO4, and absorbance was recorded at 450 nm with 570 nm correction.

[2] = Acute dermal toxicity / irritation in C57BL/6 mice; type: in vivo
Method: The acute dermal toxicity was conducted in Wistar rats to determine the dermal LD50 of MJ04 adhering to Organization for Economic Cooperation and Development (OECD) test guideline 402. A single dose of MJ04 covering 10% of body surface area was administered using a fixed dose procedure from 200 mg/kg to 2000 mg/kg with two animals per dose. The animals were monitored for mortality, morbidity, and clinical signs of toxicity at first 30 min, 6 h, 24 h, and thereafter for 14 days. Parameters like body weight, serum biochemistry (liver function test, kidney function test, and lipid Profile), and histopathology were analysed. The acute dermal irritation test was conducted in C57BL/6J mice at a single dose of 0.04 mg/kg and 0.08 mg/kg of MJ04.
Signal dose acute dermal toxicity tests were conducted in C57BL/6 mice. The tests included limited dosages of a single dose at 0.04 mg/kg and 0.08 mg/kg of MJ04. […] Digital photographs were taken at various time points (0 min, 5 min, 1 h, 4 h, 24 h, and 14 days) from representative areas using a Nikon digital camera (n = 5 mice).

hERG channels = molecular target: T2, hERG channels (Homo sapiens, UniProt Q12809); experiment: hERG channel assay, whole cell patch clamp; type: cell-based
T2 construct: host or cells: HEK293
T2 sequence (Q12809 whole entry): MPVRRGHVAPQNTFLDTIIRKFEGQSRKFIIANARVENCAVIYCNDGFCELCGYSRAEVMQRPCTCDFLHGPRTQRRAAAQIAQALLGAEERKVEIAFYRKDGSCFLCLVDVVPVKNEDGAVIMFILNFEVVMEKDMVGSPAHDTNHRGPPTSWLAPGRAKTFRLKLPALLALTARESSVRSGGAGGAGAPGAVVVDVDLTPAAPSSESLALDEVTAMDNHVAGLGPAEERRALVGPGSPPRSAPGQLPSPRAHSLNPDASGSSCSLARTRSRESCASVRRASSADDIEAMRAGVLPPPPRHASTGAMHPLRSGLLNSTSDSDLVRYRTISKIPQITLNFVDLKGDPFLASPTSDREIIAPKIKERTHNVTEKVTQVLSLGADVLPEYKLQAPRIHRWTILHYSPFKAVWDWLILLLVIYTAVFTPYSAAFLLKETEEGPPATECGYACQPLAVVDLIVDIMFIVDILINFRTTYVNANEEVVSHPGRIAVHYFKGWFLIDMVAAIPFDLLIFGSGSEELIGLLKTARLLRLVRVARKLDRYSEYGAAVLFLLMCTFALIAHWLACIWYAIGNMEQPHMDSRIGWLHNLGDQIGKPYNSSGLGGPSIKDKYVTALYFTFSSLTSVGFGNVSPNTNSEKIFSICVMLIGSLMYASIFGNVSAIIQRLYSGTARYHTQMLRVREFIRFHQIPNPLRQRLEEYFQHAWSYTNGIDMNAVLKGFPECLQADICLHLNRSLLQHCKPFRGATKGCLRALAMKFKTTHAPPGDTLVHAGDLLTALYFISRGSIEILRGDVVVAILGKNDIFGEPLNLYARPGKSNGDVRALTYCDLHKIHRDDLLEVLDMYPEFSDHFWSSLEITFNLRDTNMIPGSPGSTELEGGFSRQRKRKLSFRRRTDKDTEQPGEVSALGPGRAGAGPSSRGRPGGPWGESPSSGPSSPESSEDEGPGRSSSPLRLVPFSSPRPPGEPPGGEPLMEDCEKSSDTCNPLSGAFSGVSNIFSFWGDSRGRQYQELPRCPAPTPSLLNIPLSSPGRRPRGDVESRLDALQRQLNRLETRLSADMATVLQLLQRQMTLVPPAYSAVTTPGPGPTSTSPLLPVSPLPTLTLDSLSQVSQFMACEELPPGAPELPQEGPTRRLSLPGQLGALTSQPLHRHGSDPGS

[3] = rat, in vivo
[4] = Acute dermal toxicity (OECD 402) in Wistar rats

T1 sequence (P08069 31-1367): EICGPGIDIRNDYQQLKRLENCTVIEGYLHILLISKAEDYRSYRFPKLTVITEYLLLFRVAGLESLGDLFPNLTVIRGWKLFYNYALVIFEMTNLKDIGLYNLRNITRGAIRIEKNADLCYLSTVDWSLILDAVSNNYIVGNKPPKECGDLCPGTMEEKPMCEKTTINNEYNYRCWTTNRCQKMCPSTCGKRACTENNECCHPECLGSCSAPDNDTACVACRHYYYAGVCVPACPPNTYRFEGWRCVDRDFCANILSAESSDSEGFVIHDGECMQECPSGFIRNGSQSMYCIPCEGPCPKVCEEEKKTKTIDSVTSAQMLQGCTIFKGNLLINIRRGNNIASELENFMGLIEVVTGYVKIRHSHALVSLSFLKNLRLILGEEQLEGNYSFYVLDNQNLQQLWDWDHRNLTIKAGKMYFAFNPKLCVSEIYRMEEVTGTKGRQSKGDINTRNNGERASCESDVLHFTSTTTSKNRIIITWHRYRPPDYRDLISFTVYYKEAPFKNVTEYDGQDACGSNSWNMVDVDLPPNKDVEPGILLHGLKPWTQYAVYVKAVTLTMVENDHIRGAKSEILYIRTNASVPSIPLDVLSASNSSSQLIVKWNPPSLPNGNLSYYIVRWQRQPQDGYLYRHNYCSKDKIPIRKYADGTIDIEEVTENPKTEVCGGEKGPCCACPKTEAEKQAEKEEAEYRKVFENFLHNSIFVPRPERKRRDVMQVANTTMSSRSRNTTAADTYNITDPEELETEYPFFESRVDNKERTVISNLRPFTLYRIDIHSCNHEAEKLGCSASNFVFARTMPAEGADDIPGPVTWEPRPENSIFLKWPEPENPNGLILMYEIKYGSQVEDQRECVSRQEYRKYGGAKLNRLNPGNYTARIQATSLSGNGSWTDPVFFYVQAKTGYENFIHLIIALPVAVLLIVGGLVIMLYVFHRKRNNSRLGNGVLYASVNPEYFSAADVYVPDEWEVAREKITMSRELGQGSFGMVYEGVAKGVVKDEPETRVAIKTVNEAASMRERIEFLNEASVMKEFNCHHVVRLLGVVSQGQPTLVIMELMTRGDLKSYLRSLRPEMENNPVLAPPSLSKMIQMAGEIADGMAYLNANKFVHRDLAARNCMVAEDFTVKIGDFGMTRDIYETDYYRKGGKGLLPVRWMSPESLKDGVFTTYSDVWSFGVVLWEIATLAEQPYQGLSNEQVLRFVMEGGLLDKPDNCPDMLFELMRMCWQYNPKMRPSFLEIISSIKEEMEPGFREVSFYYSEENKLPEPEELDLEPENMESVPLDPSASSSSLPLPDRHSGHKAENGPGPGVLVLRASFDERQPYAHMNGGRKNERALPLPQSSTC

In the case of `Fc1ccc(-c2cnc3[nH]cc(-c4ccnc(NC5CC5)n4)c3c2)cc1` [MJ04], the “Fold of selectivity vs. JAK3” value (IGF-1R; IGF-1R) was 476, the pIC50 (IGF-1R; Km ATP) was 6.01 and the pIC50 (HCT-116) was 5.59. For the same compound, the pIC50 (Mia PaCa-2) was 5.64, the pIC50 (MCF-7) was 5.35 and the pIC50 (Panc-2) was 5.56. The “safety ratio (IC50 against HEK293 normal cell line versus IC50 in A549 cancer cell line)” value (HEK-293) was roughly 26, the pIC50 (HEK-293; Homo sapiens, HEK293, read-out: IC50 HEK-293, MTT, 48 h, normal cell line) was less than 4.00 and the “length of hair shafts” value (human hair follicles) was “significantly increased the length of hair shafts”. The “level of proinflammatory cytokines TNF-α, IL1-β and IL-6” value [1] was “dampens the level of proinflammatory cytokines”, the “mortality or clinical signs of toxicity” value ([2]; single dose 0.04 mg/kg) was “no mortality or clinical signs of toxicity” and the “skin irritation/corrosion, mortality or clinical signs of toxicity” value ([2]; single dose 0.08 mg/kg, 14 days, 0.08 mg/kg) was “no skin irritation/corrosion, mortality or clinical signs of toxicity”. For the same compound, the “reduction of hERG outward tail current” value (hERG channels; 10 μM) was 7.1 ± 2%, the “inhibitory effect on hERG, fold less than that of Tofacitinib” value (hERG channels; highest concentration tested (30 μM)) was ~ 2.5 fold and the “Globally Harmonized Classification System (GHS) category” value ([3]; Wistar, 14 days) was “Category-5”. The ALB ([3]; 2000 mg/kg) was 4.37 ± 2.09 g/dL, the ALP ([3]; 2000 mg/kg) was 380.33 ± 161.30 U/L and the ALT ([3]; 2000 mg/kg) was 77.33 ± 3.93 U/L. For the same compound, the AST ([3]; 2000 mg/kg) was 183.63 ± 16.64 U/L, the BUN ([3]; 2000 mg/kg) was 13.99 ± 2.92 mg/dL and the CR ([3]; 2000 mg/kg) was 0.71 ± 0.18 mg/dL. The Ca ([3]; 2000 mg/kg) was 11.90 ± 0.36 mg/dL, the GLB ([3]; 2000 mg/kg) was 3.21 ± 0.09 and the Glucose ([3]; 2000 mg/kg) was 91.13 ± 17.80 mg/dL. It also gave a Na ([3]; 2000 mg/kg) of 145.57 ± 1.71 mM, a P ([3]; 2000 mg/kg) of 4.84 ± 1.10 mg/dL and a TB ([3]; 2000 mg/kg) of 0.11 ± 0.03 mg/dL. For the same compound, the TG ([3]; 2000 mg/kg) was 75.33 ± 8.33 mg/dL, the TP ([3]; 2000 mg/kg) was 7.05 ± 0.25 g/dL and the Urea ([3]; 2000 mg/kg) was 36.57 ± 8.43 mg/dL. For the same compound, the “mortality and clinical signs of toxicity” value ([4]; 2000 mg/kg body weight, single dermal dose, 14 days) was “no mortality and clinical signs of toxicity” and the LD50 at 14 days ([4]; Wistar, rat, in vivo, topical or ocular) was greater than 2000 mg/kg.
